Assay: Blocker Index (BI), expert graders, malodorous fabric swatch treated with test material
Text: Blocker materials suitable for use in consumer products of the present invention are chosen for their ability to decrease malodor, while not interfering with perception of a fragrance. Material selection is done by assigning two indices to a test sample material from two reference scales in order to rank odor strengths. The two reference scales are the Fragrance Fidelity Index (FFI) scale and the Blocker Index (BI) scale. The FFI ranks the ability of the test sample material to impart a perceivable odor which could cause interference when combined with another fragrance and the BI ranks the ability of the test sample material to reduce malodor perception. The two methods for assigning the indices to a test sample on the FFI and the BI reference scales are given below.
The first step in the method for assigning a BI to a test sample material on the BI reference scale is to create the BI reference swatches. […] Fabric swatches for this test are white knit polycotton (4 inch×4 inch) swatches from EMC ordered as PC 50/50. The supplier is instructed to strip the swatches first, stripping involves washing twice with a fragrance-free detergent and rinsing three times.
The BI scale contains one clean swatch with no malodor applied. […] These solutions are pipetted to the middle of the swatches. […] After drying for 30 minutes in a vented hood, the swatches are wrapped in aluminum foil to prevent odor contamination to the treated swatch. A clean untreated swatch is also included as the lowest anchor point of reference for malodor strength on the BI scale. The BI reference scale swatches should be used within 0.5 to 12 hours and discarded after 12 hours. The swatches are used as scale anchor points when graders evaluate a test sample(s) and are assigned a Blocker Index (BI) as show in Table 12.
The perfumer/expert grader is asked to rank order swatches according to a scale between 0 and 3.
The reference swatches represent the 0, 1, 2, and 3 BIs on the BI reference scale, Table 12. The expert grader should familiarizes him/herself with the strength of the odor on the BI reference swatches by sniffing each one starting at 0 (the lowest odor strength) and ending at 3 (the highest odor strength). This should be done prior to evaluating the swatch treated with the test material.
To evaluate the BI, the test material is applied to a malodorous swatch to determine how well the test material blocks the malodor. […] After drying the malodorous swatch a known concentration of test material solution, between 1 ppm and 100 ppm is pipetted onto the malodorous swatch. […] It is sometimes necessary to evaluate several levels of the test material between about 1 and about 100 ppm to determine the BI.
At least two perfumers/expert graders are used to assign the BI to the test sample. […] The test sample swatch is assigned a BI at or between numbers on the BI in table.

[1] = Conc 10 ppm test material on isovaleric acid swatch
[2] = Conc 50 ppm test material on isovaleric acid swatch

Question: With `CC1CCC2(C(C)C)CC(C)OC2C1` (stereo not drawn) [4,8-dimethyl-1-(methylethyl)-7-oxybiciclo[4.3.0]nonane] as the compound, how does the BI [1] read?
Answer: Its BI is 2.0.

Question: And the BI [2]?
Answer: Its BI is 2.2.

Question: Which BI [1] does the source give for `CCC(=O)OC1CC2C3C=CCC3C1C2(C)C` (stereo not drawn) [8,8-dimethyl-3a,4,5,6,7,7a-hexahydro-1H-4,7-methanoinden-6-yl propionate] here?
Answer: The BI was 1.5.

Question: What about the BI [2] of the same compound?
Answer: Its BI is 2.2.

Question: What does the source list for `CC1(C)CCc2ccc(CCC=O)cc21` [Material 261, 3-(3,3-dimethyl-2,3-dihydro-1H-inden-5-yl)propanal]?
Answer: BI (Conc 10 ppm test material on isovaleric acid swatch, listed as 1H-Indene-5-propanal, 2,3-dihydro-3 ,3-dimethyl-): 1.5; BI (Conc 50 ppm test material on isovaleric acid swatch, listed as 1H-Indene-5-propanal, 2,3-dihydro-3 ,3-dimethyl-): 2.7

Reference: patent US20170137753A1, “DELIVERY SYSTEMS COMPRISING MALODOR REDUCTION COMPOSITIONS” (The Procter & Gamble Company, priority 2014, published 2017)
